# Laboratory results: US8404648B2, “Polypeptides KXK and their use” (Sederma, priority 2006, dated 2013)
# Where “and” joins values, the source holds several entries; their conditions need not be identical. Equal values may be shown once. Where a SMILES comes first, the peptide text is derived from it. Where no end group is shown, it is not given here. The star is where a group is joined. Ela = elaidoyl, CCCCCCCC/C=C/CCCCCCCC(=O)*; Palmitoyl = CCCCCCCCCCCCCCCC(=O)*
# Legend:
# Format in all cases: cell-based
# [1] = test system: Normal Human Dermal Fibroblasts (NHDF); assay: Survival estimated on cell layer using a fluorescent probe; details: 3 days of incubation
# Procedure: (§1) Principle of the study: Normal Human Dermal Fibroblasts (NHDF) were cultivated in an appropriate culture medium (i.e. complete DMEM with fetal calf serum). After cell anchorage, cell layers were rinsed with saline buffer and contact with molecules to be tested were performed in a complete DMEM without fetal calf serum. This medium contained ascorbate (sodium salt) and beta-aminopropionitrile, monofumarate. After 3 days of incubation, supernatants were collected and frozen. Survival was estimated on cell layer using a fluorescent probe. Collagen I was estimated using an original direct ELISA method, Fibronectin and Collagen IV were estimated using ELISA commercial kits.
# [2] = test system: Fibronectin synthesis, Normal Human Dermal Fibroblasts (NHDF); assay: Fibronectin synthesis by NHDF, commercial ELISA kit on supernatants after 3 days; details: for Variation of Fibronectin synthesis (mean, in % of negative control): NHDF, 3 days; for Fibronectin synthesis, result in words: vs negative control
# Procedure: (§2) Products: Pal-KTFK (SEQ ID NO: 7), Ela-KTAK (SEQ ID NO: 9) and Ela-KTFK (SEQ ID No: 8) were tested from 2 to 6 ppm, and Pal-KAvaK was tested from 1 to 4 ppm. Solvent=DMSO 0.08%. TGF-beta1 10^−6%, was the positive control for collagen I and fibronectin studies.
# as §1
# (§3) Results: Statistical analysis were performed on Collagen I data (n=5/assay) or fibronectin data (n=5/assay) or Collagen IV data (n=5/assay). Results obtained with molecules were compared to negative control. All data are in ng/10E6 cells. A Student t test for non paired values was used; significativity was obtained if p<0.05 or p<0.01.
# [3] = test system: Collagen I synthesis, Normal Human Dermal Fibroblasts (NHDF); assay: Collagen I synthesis by NHDF, direct ELISA on supernatants after 3 days; details: for Variation of Collagen I synthesis (mean, in % of negative control): NHDF, 3 days; for Collagen I synthesis, result in words: vs negative control
# Procedure: as §2, §1, §3
# [4] = test system: Collagen IV synthesis, Normal Human Dermal Fibroblasts (NHDF); assay: Collagen IV synthesis by NHDF, commercial ELISA kit on supernatants after 3 days; details: for Variation of Collagen IV synthesis (mean, in % of negative control): NHDF, 3 days
# Procedure: as §2, §1, §3
# [5] = positive control, TGF-beta1 10^−6% (10 ppb)
molecule,measurement,setting,value
"CCCCCCCCCCCCCCCC(=O)N[C@@H](CCCCN)C(=O)N[C@H](C(=O)N[C@@H](Cc1ccccc1)C(=O)N[C@@H](CCCCN)C(=O)O)[C@@H](C)O [Pal-KTFK, Pal-Lys-Thr-Phe-Lys] (Palmitoyl-KTFK-OH)",maximal concentration accepted by the cells,[1],~6 ppm
Ela-Lys-Thr-Ala-Lys (Ela-KTAK) [N-elaidoyl tetrapeptide Lys-Thr-Ala-Lys],"Variation of Fibronectin synthesis (mean, in % of negative control)",[2]; 2 ppm,16%
same,"Variation of Fibronectin synthesis (mean, in % of negative control)",[2]; 4 ppm,32%
same,"Fibronectin synthesis, result in words",[2]; 4 ppm,increase
same,"Variation of Fibronectin synthesis (mean, in % of negative control)",[2]; 6 ppm,31%
same,"Variation of Collagen I synthesis (mean, in % of negative control)",[3]; 2 ppm,6%
same,"Variation of Collagen I synthesis (mean, in % of negative control)",[3]; 4 ppm,18%
same,"Variation of Collagen I synthesis (mean, in % of negative control)",[3]; 6 ppm,45%
same,"Collagen I synthesis, result in words",[3]; 6 ppm,increase
Ela-Lys-Thr-Phe-Lys (Ela-KTFK) [N-elaidoyl tetrapeptide Lys-Thr-Phe-Lys],"Variation of Fibronectin synthesis (mean, in % of negative control)",[2]; 2 ppm,10%
same,"Variation of Fibronectin synthesis (mean, in % of negative control)",[2]; 4 ppm,25%
same,"Variation of Fibronectin synthesis (mean, in % of negative control)",[2]; 6 ppm,42%
same,"Fibronectin synthesis, result in words",[2]; 6 ppm,significant increase
same,"Variation of Collagen I synthesis (mean, in % of negative control)",[3]; 2 ppm,6%
same,"Variation of Collagen I synthesis (mean, in % of negative control)",[3]; 4 ppm,19%
same,"Variation of Collagen I synthesis (mean, in % of negative control)",[3]; 6 ppm,49%
same,"Collagen I synthesis, result in words",[3]; 6 ppm,significant increase
same,"Variation of Collagen IV synthesis (mean, in % of negative control)",[4]; 2 ppm,10%
same,"Variation of Collagen IV synthesis (mean, in % of negative control)",[4]; 4 ppm,7%
same,"Variation of Collagen IV synthesis (mean, in % of negative control)",[4]; 6 ppm,7%
Pal-Lys-Ava-Lys [Pal-KAvaK],"Variation of Fibronectin synthesis (mean, in % of negative control)",[2]; 1 ppm,14%
same,"Variation of Fibronectin synthesis (mean, in % of negative control)",[2]; 2 ppm,15%
same,"Variation of Fibronectin synthesis (mean, in % of negative control)",[2]; 4 ppm,54%
same,"Fibronectin synthesis, result in words",[2]; 4 ppm,increase
same,"Variation of Collagen I synthesis (mean, in % of negative control)",[3]; 1 ppm,1%
same,"Variation of Collagen I synthesis (mean, in % of negative control)",[3]; 2 ppm,14%
same,"Variation of Collagen I synthesis (mean, in % of negative control)",[3]; 4 ppm,49%
same,"Collagen I synthesis, result in words",[3]; 4 ppm,increase
same,"Variation of Collagen IV synthesis (mean, in % of negative control)",[4]; 1 ppm,8%
same,"Variation of Collagen IV synthesis (mean, in % of negative control)",[4]; 2 ppm,9%
same,"Variation of Collagen IV synthesis (mean, in % of negative control)",[4]; 4 ppm,23%
same,"Collagen IV synthesis, result in words","[4]; 4 ppm, vs negative control",increase
"TGF-beta: TGF-beta1 10^−6%, the positive control for collagen I and fibronectin studies [reference compound]","Variation of Fibronectin synthesis (mean, in % of negative control)",[2]; 10 ppb,124% and 85% and 87%
same,"Fibronectin synthesis, result in words",[2]; [5],significant increase
same,"Collagen I synthesis, result in words",[3]; [5],significant increase
same,"Variation of Collagen IV synthesis (mean, in % of negative control)",[4]; 10 ppb,12%
